Assays:
[1] = tested on: human adult primary fibroblast cells; assay: Telomere length by Telomere Analysis Technology (HT Q-FISH) and telomere shortening rate; format: cell-based
Description: A high-throughput (HT) Q-FISH technique was used. This method is based on a quantitative fluorescence in-situ hybridization method modified for cells in interphase2. In brief, telomeres are hybridized with a fluorescent Peptide Nucleic Acid probe (PNA) that recognizes three telomere repeats. The images of the nuclei and telomeres are captured by a high-content screen system. The intensity of the fluorescent signal from the telomeric PNA probes that hybridize to a given telomere is proportional to the length of that telomere. The intensities of fluorescence are translated to base pairs through a standard regression curve which is generated using control cell lines with known telomere length.
(§1) Sample Preparation and HT Q-FISH: On processing day, the samples and control cell lines frozen in liquid nitrogen are thawed at 37° C. and cell counts and cellular viability are determined. Aliquots with viability lower than 60% are considered below our QC standards and are not further analyzed. Cells are seeded in clear bottom black-walled 384-well plates at 15,000 cells per well in 5 replicates for each sample and 8 replicates for each control cell line.
Cells are fixed with methanol/acetic acid (3/1, vol/vol). Once these cells have fixed onto the plate, they are treated with pepsin to digest the cytoplasm and the nuclei are processed for in situ hybridization with the PNA probe. After several washing steps following standard DAPI incubation for DNA staining, the wells are filled up with mounting medium and the plate is stored overnight at 4° C.
HT Microscopy: Quantitative image acquisition and analysis is performed on a High Content Screening Opera System. Images are captured, using a 40×0.95 NA water immersion objective. UV and 488 nm excitation wavelengths are used to detect the DAPI and A488 signals respectively. With constant exposure settings, 15 independent images are captured at different positions for each well. Next, the nuclei images are used to define the region of interest for each cell, measuring telomere fluorescence intensity of the A488 image in all of them. The results of intensity for each foci are exported to the Columbus 2.4 software. Telomere length distribution and median telomere length are calculated with Life Length's proprietary program.
Median telomere length, 20th percentile telomere length, percentage of short telomeres and the coefficients of variation for each set of samples. The percentage of short telomeres is defined as the percentage of those below 3 Kbp (<3 Kbp). As mentioned earlier, measurements in five replicates per sample were performed.
For TAT analysis, data were grouped by condition (Ctrl, H2O2, LUT10, LUT5, LUT1, LUT10+H2O2, LUT5+H2O2, LUT1+H2O2) and time point of treatment (0, 4, and 8 weeks).
Due to the fact that DNA replication during the cell cycle causes of telomere shortening, the telomere length measurements performed were normalized by the total number of population doubling (cell replication) in each condition and week.
Telomere shortening rate was analysed, Median of telomere length (initial-final)/Population Doubling, at the defined time points and treatments, FIG. 8.
Graph of telomere length vs Population doubling at different treatments. Slope of regression line in each condition, represents the telomere shortening rate. Y=aX+b; a=slope andbb=y intercept, FIG. 9.

[2] = tested on: human adult primary fibroblast cells; assay: Cell count and viability of samples after thawing (Tripan-Blue exclusion); format: cell-based
Method: as §1, with “line. Cell count: An automated cell counter is used to determine the total number of cells in the vials. A minimum of 100.000 cells are needed to perform TAT. Cell viability by Tripan-Blue exclusion method. The exclusion criteria currently in place will reject aliquots with less than 60% viable cells.” for “line.”

[3] = Lutein 1 μg/ml + 10 μM H2O2, week 4 (P4)
[4] = Lutein 1 μg/ml + 10 μM H2O2, week 8 (P8)
[5] = Lutein 1 μg/ml, standard culture, week 4 (P4)
[6] = Lutein 1 μg/ml, standard culture, week 8 (P8)
[7] = Lutein 5 μg/ml + 10 μM H2O2, week 4 (P4)
[8] = Lutein 5 μg/ml + 10 μM H2O2, week 8 (P8)
[9] = Lutein 5 μg/ml, standard culture, week 4 (P4)
[10] = Lutein 5 μg/ml, standard culture, week 8 (P8)
[11] = Lutein 10 μg/ml + 10 μM H2O2, week 4 (P4)
[12] = Lutein 10 μg/ml + 10 μM H2O2, week 8 (P8)
[13] = Lutein 10 μg/ml, standard culture, week 4 (P4)
[14] = Lutein 10 μg/ml, standard culture, week 8 (P8)

CC1=C[C@H](O)CC(C)(C)[C@H]1/C=C/C(C)=C/C=C/C(C)=C/C=C/C=C(C)/C=C/C=C(C)/C=C/C1=C(C)C[C@@H](O)CC1(C)C [Lutein] was tested, and the “Telomere shortening rate versus control” value ([1]; Lutein 1 μg/ml (LUT1), standard conditions, 8 weeks) was “significant increase”, the “Median Telomere Length (Table 7A)” value ([1]; Lutein 1 μg/ml + 10 μM H2O2, week 4) was 5980 bp and the “20th Percentile Length (telomere, TAT)” value [1, 3] was 3381 base pairs. The “Median Length (telomere, TAT)” value [1, 3] was 5997 base pairs, the “Telomere shortening rate (Median of telomere length (initial-final)/Population Doubling)” value [1, 3] was 111 bp/PD and the “Telomeres <3 Kbp (percentage of short telomeres)” value [1, 3] was 16.72%. The “Median Telomere Length (Table 7A)” value ([1]; Lutein 1 μg/ml + 10 μM H2O2, week 8) was 6045 bp, the “20th Percentile Length (telomere, TAT)” value [1, 4] was 2848 base pairs and the “Median Length (telomere, TAT)” value [1, 4] was 6037 base pairs. The “Telomere shortening rate (Median of telomere length (initial-final)/Population Doubling)” value [1, 4] was 63 bp/PD, the “Telomeres <3 Kbp (percentage of short telomeres)” value [1, 4] was 21.14% and the “Slope (Telomere Shortening Rate) of regression line, telomere length vs Population doubling” value (shortened to “Slope … vs Population doubling”) ([1]; Lutein 1 μg/ml + 10 μM H2O2, weeks 0-8) was “y = −66.365x + 7187.3”. The “Median Telomere Length (Table 7A)” value ([1]; Lutein 1 μg/ml, standard culture, week 4) was 5984 bp, the “20th Percentile Length (telomere, TAT)” value [1, 5] was 3351 base pairs and the “Median Length (telomere, TAT)” value [1, 5] was 5977 base pairs. The “Telomere shortening rate (Median of telomere length (initial-final)/Population Doubling)” value [1, 5] was 100 bp/PD, the “Telomeres <3 Kbp (percentage of short telomeres)” value [1, 5] was 16.87% and the “Median Telomere Length (Table 7A)” value ([1]; Lutein 1 μg/ml, standard culture, week 8) was 6071 bp. For the same molecule, the “20th Percentile Length (telomere, TAT)” value [1, 6] was 2848 base pairs, the “Median Length (telomere, TAT)” value [1, 6] was 6077 base pairs and the “Telomere shortening rate (Median of telomere length (initial-final)/Population Doubling)” value [1, 6] was 53 bp/PD. For the same molecule, the “Telomeres <3 Kbp (percentage of short telomeres)” value [1, 6] was 21.29%, the “Slope … vs Population doubling” value ([1]; Lutein 1 μg/ml, standard culture, weeks 0-8) was “y = −55.261x + 7163.8” and the “Median Telomere Length (Table 7A)” value ([1]; Lutein 5 μg/ml + 10 μM H2O2, week 4) was 6085 bp. For the same molecule, the “20th Percentile Length (telomere, TAT)” value [1, 7] was 3351 base pairs, the “Median Length (telomere, TAT)” value [1, 7] was 6077 base pairs and the “Telomere shortening rate (Median of telomere length (initial-final)/Population Doubling)” value [1, 7] was 93 bp/PD. For the same molecule, the “Telomeres <3 Kbp (percentage of short telomeres)” value [1, 7] was 16.97%, the “Median Telomere Length (Table 7A)” value ([1]; Lutein 5 μg/ml + 10 μM H2O2, week 8) was 5980 bp and the “20th Percentile Length (telomere, TAT)” value [1, 8] was 2977 base pairs. The “Median Length (telomere, TAT)” value [1, 8] was 5977 base pairs, the “Telomere shortening rate (Median of telomere length (initial-final)/Population Doubling)” value [1, 8] was 59 bp/PD and the “Telomeres <3 Kbp (percentage of short telomeres)” value [1, 8] was 20.09%. For the same molecule, the “Slope … vs Population doubling” value ([1]; Lutein 5 μg/ml + 10 μM H2O2, weeks 0-8) was “y = −61.587x + 7222”, the “Median Telomere Length (Table 7A)” value ([1]; Lutein 5 μg/ml, standard culture, week 4) was 6340 bp and the “20th Percentile Length (telomere, TAT)” value [1, 9] was 3104 base pairs. The “Median Length (telomere, TAT)” value [1, 9] was 6349 base pairs, the “Telomere shortening rate (Median of telomere length (initial-final)/Population Doubling)” value [1, 9] was 80 bp/PD and the “Telomeres <3 Kbp (percentage of short telomeres)” value [1, 9] was 18.98%. The “Median Telomere Length (Table 7A)” value ([1]; Lutein 5 μg/ml, standard culture, week 8) was 6177 bp, the “20th Percentile Length (telomere, TAT)” value [1, 10] was 2945 base pairs and the “Median Length (telomere, TAT)” value [1, 10] was 6037 base pairs. For the same molecule, the “Telomere shortening rate (Median of telomere length (initial-final)/Population Doubling)” value [1, 10] was 55 bp/PD, the “Telomeres <3 Kbp (percentage of short telomeres)” value [1, 10] was 20.51% and the “Slope … vs Population doubling” value ([1]; Lutein 5 μg/ml, standard culture, weeks 0-8) was “y = −56.796x + 7261.1”. For the same molecule, the “Median Telomere Length (Table 7A)” value ([1]; Lutein 10 μg/ml + 10 μM H2O2, week 4) was 5804 bp, the “20th Percentile Length (telomere, TAT)” value [1, 11] was 3073 base pairs and the “Median Length (telomere, TAT)” value [1, 11] was 5772 base pairs. For the same molecule, the “Telomere shortening rate (Median of telomere length (initial-final)/Population Doubling)” value [1, 11] was 118 bp/PD, the “Telomeres <3 Kbp (percentage of short telomeres)” value [1, 11] was 19.10% and the “Median Telomere Length (Table 7A)” value ([1]; Lutein 10 μg/ml + 10 μM H2O2, week 8) was 5972 bp. For the same molecule, the “20th Percentile Length (telomere, TAT)” value [1, 12] was 2977 base pairs, the “Median Length (telomere, TAT)” value [1, 12] was 5977 base pairs and the “Telomere shortening rate (Median of telomere length (initial-final)/Population Doubling)” value [1, 12] was 66 bp/PD. The “Telomeres <3 Kbp (percentage of short telomeres)” value [1, 12] was 20.09%, the “Slope … vs Population doubling” value ([1]; Lutein 10 μg/ml + 10 μM H2O2, weeks 0-8) was “y = −71.479x + 7181.9” and the “Median Telomere Length (Table 7A)” value ([1]; Lutein 10 μg/ml, standard culture, week 4) was 6272 bp. The “20th Percentile Length (telomere, TAT)” value [1, 13] was 3198 base pairs, the “Median Length (telomere, TAT)” value [1, 13] was 6330 base pairs and the “Telomere shortening rate (Median of telomere length (initial-final)/Population Doubling)” value [1, 13] was 81 bp/PD. The “Telomeres <3 Kbp (percentage of short telomeres)” value [1, 13] was 18.48%, the “Median Telomere Length (Table 7A)” value ([1]; Lutein 10 μg/ml, standard culture, week 8) was 6008 bp and the “20th Percentile Length (telomere, TAT)” value [1, 14] was 2977 base pairs. For the same molecule, the “Median Length (telomere, TAT)” value [1, 14] was 5997 base pairs, the “Telomere shortening rate (Median of telomere length (initial-final)/Population Doubling)” value [1, 14] was 56 bp/PD and the “Telomeres <3 Kbp (percentage of short telomeres)” value [1, 14] was 20.21%. For the same molecule, the “Slope … vs Population doubling” value ([1]; Lutein 10 μg/ml, standard culture, weeks 0-8) was “y = −57.039x + 7250”, the “Telomere shortening rate compared to control (H2O2)” value ([1]; Lutein 10, 5 and 1 μg/ml + 10 μM H2O2, after 8 passages) was “significant difference” and the “Effect on telomere length erosion in vitro” value ([1]; oxidative stress conditions, after 8 passages) was “significant protective effect”. The “Telomere analysis versus control, other differences” value ([1]; treated groups in standard conditions (LUT10, LUT5, LUT1), 8 weeks) was “No other significant differences”, the “Viability of sample after thawing” value [2, 3] was 87% and the “Viability of sample after thawing” value [2, 4] was 87%. The “Viability of sample after thawing” value [2, 5] was 80%, the “Viability of sample after thawing” value [2, 6] was 91% and the “Viability of sample after thawing” value [2, 7] was 81%. For the same molecule, the “Viability of sample after thawing” value [2, 8] was 76%, the “Viability of sample after thawing” value [2, 9] was 96% and the “Viability of sample after thawing” value [2, 10] was 91%. The “Viability of sample after thawing” value [2, 11] was 96%, the “Viability of sample after thawing” value [2, 12] was 92% and the “Viability of sample after thawing” value [2, 13] was 96%. The “Viability of sample after thawing” value [2, 14] was 87%.

Reference: patent US20220175693A1, “DIETARY SUPPLEMENT COMPRISING LUTEIN FOR TELOMERE PROTECTION, AND METHOD FOR PRODUCTION THEREOF” (BIOGEN EXTRACTS PRIVATE LIMITED, priority 2019, published 2022)
